Experimental data published in paper PMC12627627 (Nature Communications, 2025).
“And” between values parts separate entries of the source, which are not always exact repeats. Equal values may be shown once.

Columns and labels:
R12 domain of RyR1 = target: T1, R12 domain of RyR1 (Homo sapiens, UniProt P21817); test: ITC, R12 domain of RyR1; type: binding
T1 construct: RyR1 854–1054, RyR2 865–1065, RyR3 853–1053; made in house; host or cells: E. coli BL21 (DE3)
T1 sequence (P21817 854-1054): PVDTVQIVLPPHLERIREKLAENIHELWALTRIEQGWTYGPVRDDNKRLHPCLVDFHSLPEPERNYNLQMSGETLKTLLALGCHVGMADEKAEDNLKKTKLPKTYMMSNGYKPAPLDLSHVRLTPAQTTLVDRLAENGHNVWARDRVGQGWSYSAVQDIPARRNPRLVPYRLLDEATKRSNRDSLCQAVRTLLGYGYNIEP
Experimental: (§1) The plasmids were subsequently transformed into E. coli BL21 (DE3) cells (NEB, USA) and cultured in Luria-Bertani (LB) media at 37 °C. Protein expression was induced with 0.4 mM isopropyl β-D-thiogalactoside (IPTG) when the optical density (OD)600 reached ~0.8, followed by incubation at 18 °C for 12 h. The cells were harvested via centrifugation at 5,000 × g for 15 min at 4 °C and homogenized in Buffer A (10 mM HEPES, pH 7.4, 250 mM KCl) supplemented with 25 µg/mL DNaseI, 25 µg/mL lysozyme, 1 mM phenylmethylsulfonyl fluoride (PMSF), and 20 mM imidazole. The homogenate was centrifuged at 12,000 × g for 45 min, and the supernatant was filtered through a syringe filter (0.22 µm).
(§2) Purified R12 domain protein from the three RyR isoforms, fused with hexahistidine-tagged MBP (HMT-R12) was dialyzed overnight at 4 °C in ITC buffer (200 mM HEPES, pH 7.4, 150 mM KCl). ITC experiments were performed using a PEAQ-ITC instrument (Malvern, UK) at 25 °C with a stirring speed of 750 rpm. […] For the ternary binding experiments, 500 μM or 5 mM AMP-PCP/ADP was preincubated with both the titrants and titrates. […] The data was fit to a one-site fitting model after background buffer subtraction. The RyR1 R12 mutants were generated using a QuikChange mutagenesis kit (Stratagene) according to the manufacturer’s protocol, with primer sequences listed in Supplementary Table 3.

RyR1 R2163C = target: T2, RyR1 R2163C (Oryctolagus cuniculus, UniProt P11716, R2163C); test: Time-lapse [Ca2+]ER measurement, HEK293 cells expressing RyR1 R2163C; type: cell-based; conditions: for ER luminal [Ca2+] change (F/F0): Fig. 1B source data, single replicates
T2 construct: expressed in transfected cells
Experimental: HEK293 cells stably expressing R-CEPIA1er and RyRs (WT RyR1, RyR1-W881A, RyR1-W995A, RyR1-R2163C, and WT RyR2)[26],[27] were used in this study. Briefly, the cells were seeded at a density of 2 × 10⁴ cells/well in a 96-well black, clear-bottom plate (Corning). Doxycycline (2 µg/mL) was added 12 h after seeding, and the medium was replaced 24 h later with HEPES-buffered Krebs solution (5 mM HEPES, pH 7.4; 140 mM NaCl; 5 mM KCl; 2 mM CaCl₂; 1 mM MgCl₂; and 11 mM glucose). Fluorescence measurements were conducted using a FlexStation 3 fluorometer (Molecular Devices) at 37 °C. The R-CEPIA1er was excited at 560 nm, emitted at 610 nm, and captured every 10 seconds over 300 seconds. […] The fluorescence changes (F/F₀) were calculated by dividing the average fluorescence of the last 100 seconds (F) by that of the first 100 seconds (F₀). All measurements were performed in triplicate.

R12 domain of RyR2 = target: T3, R12 domain of RyR2 (Homo sapiens, UniProt Q92736); test: ITC, R12 domain of RyR2; type: binding; conditions: absence or presence of AMP-PCP or ADP
T3 construct: RyR1 854–1054, RyR2 865–1065, RyR3 853–1053; made in house; host or cells: E. coli BL21 (DE3)
T3 sequence (Q92736 865-1065): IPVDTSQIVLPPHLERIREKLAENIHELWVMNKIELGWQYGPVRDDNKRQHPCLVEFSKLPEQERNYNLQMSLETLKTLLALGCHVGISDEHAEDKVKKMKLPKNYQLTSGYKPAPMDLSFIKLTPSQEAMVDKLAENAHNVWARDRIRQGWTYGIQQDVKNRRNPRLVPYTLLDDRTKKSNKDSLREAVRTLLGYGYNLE
Experimental: as §1, §2

R12 domain of RyR3 = target: T4, R12 domain of RyR3 (Homo sapiens, UniProt Q15413); test: ITC, R12 domain of RyR3; type: binding
T4 construct: RyR1 854–1054, RyR2 865–1065, RyR3 853–1053; made in house; host or cells: E. coli BL21 (DE3)
T4 sequence (Q15413 853-1053): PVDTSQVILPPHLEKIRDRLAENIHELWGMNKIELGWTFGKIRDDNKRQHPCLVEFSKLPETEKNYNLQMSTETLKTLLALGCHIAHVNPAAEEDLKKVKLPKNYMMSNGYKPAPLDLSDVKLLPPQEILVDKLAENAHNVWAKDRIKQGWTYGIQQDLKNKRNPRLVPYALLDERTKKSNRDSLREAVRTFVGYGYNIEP
Experimental: as §1, §2

Question: Which Kd (R12 domain of RyR1; RyR1 R12 + 500 µM ADP) does the source give for O=C1CN(/N=C/c2ncc(-c3ccc(Br)cc3)o2)C(=O)N1 [AZU, Azumolene] here?
Answer: The Kd was 241 ± 31 nM.

Question: And the “No of Sites (N)” value (R12 domain of RyR1; RyR1 R12 + 500 µM ADP)?
Answer: Its value is 0.652 ± 0.16.

Question: And the ΔH (R12 domain of RyR1; RyR1 R12 + 500 µM ADP)?
Answer: Its ΔH is -7.92 ± 0.91 kcal/mol.

Question: What about the “−TΔS” value (R12 domain of RyR1; RyR1 R12 + 500 µM ADP) of the same compound?
Answer: The value was -1.11 kcal/mol.

Question: What about the “No of Sites (N)” value (R12 domain of RyR1; RyR1 R12 + 500 µM AMP-PCP) of the same compound?
Answer: Its value is 0.904 ± 0.52.

Question: What about the ΔH (R12 domain of RyR1; RyR1 R12 + 500 µM AMP-PCP) of the same compound?
Answer: Its ΔH is -2.99 ± 0.47 kcal/mol.

Question: What about the “−TΔS” value (R12 domain of RyR1; RyR1 R12 + 500 µM AMP-PCP) of the same compound?
Answer: Its value is -6.48 kcal/mol.

Question: And the Kd (R12 domain of RyR1; RyR1 R12 + 5 mM ADP)?
Answer: Its Kd is 60 ± 12 nM.

Question: And the “No of Sites (N)” value (R12 domain of RyR1; RyR1 R12 + 5 mM ADP)?
Answer: The value was 0.489 ± 0.28.

Question: And the ΔH (R12 domain of RyR1; RyR1 R12 + 5 mM ADP)?
Answer: Its ΔH is -8.45 ± 0.94 kcal/mol.

Question: What about the “−TΔS” value (R12 domain of RyR1; RyR1 R12 + 5 mM ADP) of the same compound?
Answer: The value was -1.40 kcal/mol.

Question: And the Kd (R12 domain of RyR1; RyR1 R12 + 5 mM AMP-PCP)?
Answer: Its Kd is 46 ± 14 nM.

Question: And the “No of Sites (N)” value (R12 domain of RyR1; RyR1 R12 + 5 mM AMP-PCP)?
Answer: The value was 0.718 ± 0.50.

Question: And the ΔH (R12 domain of RyR1; RyR1 R12 + 5 mM AMP-PCP)?
Answer: Its ΔH is -7.75 ± 0.12 kcal/mol.

Question: And the “−TΔS” value (R12 domain of RyR1; RyR1 R12 + 5 mM AMP-PCP)?
Answer: The value was -2.26 kcal/mol.

Question: What about the “No of Sites (N)” value (R12 domain of RyR1; RyR1 R12, no nucleotide) of the same compound?
Answer: Its value is 0.810 ± 0.21.

Question: What about the ΔH (R12 domain of RyR1; RyR1 R12, no nucleotide) of the same compound?
Answer: The ΔH was -80 kcal/mol.

Question: What about the “−TΔS” value (R12 domain of RyR1; RyR1 R12, no nucleotide) of the same compound?
Answer: The value was 75.60 kcal/mol.

Question: And the Kd (R12 domain of RyR1; RyR1 R12, no nucleotide, ITC 25 °C)?
Answer: Its Kd is 595000 nM and 596000 nM.

Question: And the “ER luminal [Ca2+] change (F/F0)” value (RyR1 R2163C; concentration 0.001 (unit not given))?
Answer: Its value is 0.9854 and 0.9883 and 0.9973.

Question: What about the “ER luminal [Ca2+] change (F/F0)” value (RyR1 R2163C; concentration 0.01 (unit not given)) of the same compound?
Answer: The value was 0.9658 and 0.9819 and 0.982.

Question: And the “ER luminal [Ca2+] change (F/F0)” value (RyR1 R2163C; concentration 0.05 (unit not given))?
Answer: The value was 1.099 and 1.026 and 0.9992.

Question: And the “ER luminal [Ca2+] change (F/F0)” value (RyR1 R2163C; concentration 0.1 (unit not given))?
Answer: The value was 1.103 and 1.117 and 1.012.

Question: What about the “ER luminal [Ca2+] change (F/F0)” value (RyR1 R2163C; concentration 0.5 (unit not given)) of the same compound?
Answer: Its value is 1.22 and 1.241 and 1.23.

Question: What about the “ER luminal [Ca2+] change (F/F0)” value (RyR1 R2163C; concentration 1 (unit not given)) of the same compound?
Answer: The value was 1.3399 and 1.372 and 1.356.

Question: And the “ER luminal [Ca2+] change (F/F0)” value (RyR1 R2163C; concentration 5 (unit not given))?
Answer: Its value is 1.6271 and 1.651 and 1.748.

Question: And the “ER luminal [Ca2+] change (F/F0)” value (RyR1 R2163C; concentration 10 (unit not given))?
Answer: Its value is 1.557 and 1.7194 and 1.724.

Question: What about the “ER luminal [Ca2+] change (F/F0)” value (RyR1 R2163C; concentration 50 (unit not given)) of the same compound?
Answer: The value was 1.618 and 1.707 and 1.756.

Question: And the “ER luminal [Ca2+] change (F/F0)” value (RyR1 R2163C; concentration 100 (unit not given))?
Answer: Its value is 1.541 and 1.665 and 1.689.

Question: What about the IC50 (RyR1 R2163C; HEK293 cells stably expressing RyR1 R2163C, ER Ca2+ fluorescence, dose-dependent) of the same compound?
Answer: Its IC50 is 410 nM.

Question: What about the “binding to RyR2 R12 domain by ITC” value (R12 domain of RyR2) of the same compound?
Answer: The value was “neither DAN nor AZU exhibited detectable binding”.

Question: And the Kd (R12 domain of RyR3; RyR3 R12 + 500 µM ADP)?
Answer: The Kd was 362 ± 86 nM.

Question: What about the “No of Sites (N)” value (R12 domain of RyR3; RyR3 R12 + 500 µM ADP) of the same compound?
Answer: The value was 0.613 ± 0.82.

Question: And the ΔH (R12 domain of RyR3; RyR3 R12 + 500 µM ADP)?
Answer: The ΔH was -6.16 ± 0.15 kcal/mol.

Question: And the “−TΔS” value (R12 domain of RyR3; RyR3 R12 + 500 µM ADP)?
Answer: The value was -2.63 kcal/mol.

Question: What about the Kd (R12 domain of RyR3; RyR3 R12 + 500 µM AMP-PCP) of the same compound?
Answer: The Kd was 111 ± 25 nM.

Question: What about the “No of Sites (N)” value (R12 domain of RyR3; RyR3 R12 + 500 µM AMP-PCP) of the same compound?
Answer: Its value is 0.760 ± 0.45.

Question: And the ΔH (R12 domain of RyR3; RyR3 R12 + 500 µM AMP-PCP)?
Answer: Its ΔH is -7.90 ± 0.11 kcal/mol.

Question: And the “−TΔS” value (R12 domain of RyR3; RyR3 R12 + 500 µM AMP-PCP)?
Answer: Its value is -1.59 kcal/mol.

Question: What about the Kd (R12 domain of RyR3; RyR3 R12 + 5 mM ADP) of the same compound?
Answer: The Kd was 52 ± 13 nM.

Question: What about the “No of Sites (N)” value (R12 domain of RyR3; RyR3 R12 + 5 mM ADP) of the same compound?
Answer: Its value is 0.813 ± 0.48.

Question: What about the ΔH (R12 domain of RyR3; RyR3 R12 + 5 mM ADP) of the same compound?
Answer: The ΔH was -7.35 ± 0.11 kcal/mol.

Question: What about the “−TΔS” value (R12 domain of RyR3; RyR3 R12 + 5 mM ADP) of the same compound?
Answer: Its value is -2.59 kcal/mol.

Question: And the Kd (R12 domain of RyR3; RyR3 R12 + 5 mM AMP-PCP)?
Answer: Its Kd is 48 ± 21 nM.

Question: What about the “No of Sites (N)” value (R12 domain of RyR3; RyR3 R12 + 5 mM AMP-PCP) of the same compound?
Answer: The value was 0.854 ± 0.21.

Question: And the ΔH (R12 domain of RyR3; RyR3 R12 + 5 mM AMP-PCP)?
Answer: Its ΔH is -7.80 ± 0.15 kcal/mol.

Question: What about the “−TΔS” value (R12 domain of RyR3; RyR3 R12 + 5 mM AMP-PCP) of the same compound?
Answer: Its value is -2.18 kcal/mol.

Question: What about the “No of Sites (N)” value (R12 domain of RyR3; RyR3 R12, no nucleotide) of the same compound?
Answer: Its value is 1.02 ± 0.41.

Question: What about the ΔH (R12 domain of RyR3; RyR3 R12, no nucleotide) of the same compound?
Answer: Its ΔH is -80 kcal/mol.

Question: And the “−TΔS” value (R12 domain of RyR3; RyR3 R12, no nucleotide)?
Answer: The value was 75.40 kcal/mol.

Question: And the Kd (R12 domain of RyR3; RyR3 R12, no nucleotide, ITC 25 °C)?
Answer: Its Kd is 394000 ± 7050 nM.
